Where two headings read alike, the source gives them in different places.
Legend:
Format in all cases: cell-based
PANC-1 = assay: SRB colorimetric cell growth inhibition assay, PANC-1; settings: Homo sapiens; for CC50: LC=cell killing (cytotoxic effect)
How it was run: (§1)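 Human tumour cells continuously exposed to compound in 96-well culture; growth and viability quantified colorimetrically by sulforhodamine B staining. Mean ± SD from triplicate wells; GI (growth inhibition), TGI (total growth inhibition, cytostatic) and LC (cell killing, cytotoxic) parameters derived.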

SK-BR-3 = assay: SRB colorimetric cell growth inhibition assay, SK-BR-3; settings: Homo sapiens, SK-BR-3, SK-BR-3
How it was run: as §1

K-562 = assay: SRB colorimetric cell growth inhibition assay, K-562; settings: Homo sapiens, K562, K-562
How it was run: as §1

SK-MEL-28 = assay: SRB colorimetric cell growth inhibition assay, SK-MEL-28
How it was run: as §1

LNCaP = assay: SRB colorimetric cell growth inhibition assay, LNCaP; settings: Homo sapiens, LNCaP, LN-caP
How it was run: as §1

SKOV-3 = assay: SRB colorimetric cell growth inhibition assay, SKOV-3; settings: Homo sapiens
Description: (§2) Inhibition of Cell Growth by Colorimetric Assay.
(§3) A colorimetric type of assay, using sulforhodamine B (SRB) reaction has been adapted for a quantitative measurement of cell growth and viability (following the technique described by P. A. Skehan, et al., J. Natl. Cancer Inst. 1990, 82, 1107-1112).
(§4) This form of assay employs 96 well cell culture microplates of 9 mm diameter (T. Mosmann et al., J. of Immunological Methods 1983, 65, 55-63; G. T. Faircloth et al., J. of Tissue and Culture Methods 1988, 11, 201-205).
(§5) Most of the cell lines are obtained from American Type Culture Collection (ATCC) derived from different human cancer types.
(§6) The values for mean +/− SD of data from triplicate wells are calculated. Some parameters for cellular responses can be calculated: GI=growth inhibition, TGI=total growth inhibition (cytostatic effect) and LC=cell killing (cytotoxic effect).

DU-145 = assay: SRB colorimetric cell growth inhibition assay, DU-145; settings: Homo sapiens, DU-145, DU-145
How it was run: as §1

LoVo = assay: SRB colorimetric cell growth inhibition assay, LoVo; settings: Homo sapiens; for CC50: LC=cell killing (cytotoxic effect); for IC (TGI): TGI=total growth inhibition (cytostatic effect), read-out: TGI LOVO
How it was run: as §1

LoVo-Dox = assay: SRB colorimetric cell growth inhibition assay, LoVo-Dox (MDR)
How it was run: as §1

IGROV-ET = assay: SRB colorimetric cell growth inhibition assay, IGROV-ET (ET-743 resistant); settings: Homo sapiens; for CC50: LC=cell killing (cytotoxic effect)
How it was run: as §1

HT-29 = assay: SRB colorimetric cell growth inhibition assay, HT-29; settings: Homo sapiens; for CC50: LC=cell killing (cytotoxic effect); for IC (TGI): TGI=total growth inhibition (cytostatic effect), read-out: TGI HT-29
How it was run: as §1

A-549 = assay: SRB colorimetric cell growth inhibition assay, A-549; settings: for GI50: GI=growth inhibition, read-out: GI50 A-549; for CC50: LC=cell killing (cytotoxic effect); for IC (TGI): TGI=total growth inhibition (cytostatic effect), read-out: TGI A-549
How it was run: as §1

IGROV = assay: SRB colorimetric cell growth inhibition assay, IGROV; settings: Homo sapiens, IGROV
How it was run: as §1

H-MEC-1 = assay: SRB colorimetric cell growth inhibition assay, H-MEC-1; settings: Homo sapiens, TGI=total growth inhibition (cytostatic effect)
Description: as §2, §3, §4, §5, §6

[1] = Homo sapiens, SK-MEL-28, MEL-28; TGI=total growth inhibition (cytostatic effect); read-out: TGI MEL-28
[2] = Homo sapiens, LOVO-DOX; TGI=total growth inhibition (cytostatic effect); read-out: TGI LOVO-DOX

COc1cc(-c2c3n(c4c(=O)oc5cc(OC(=O)[C@H](C)N)c(OC)cc5c24)CCc2cc(OC(=O)[C@H](C)N)c(OC)cc2-3)ccc1OC(=O)[C@H](C)N [Compound 42]
GI50 (PANC-1; PANC-1, PANC-1, GI=growth inhibition, read-out: GI50 PANC-1): 0.732 µM | CC50 (PANC-1; PANC-1, PANC-1, read-out: LC50 PANC-1): 9.46 µM | IC (TGI) (PANC-1; PANC-1, PANC-1, TGI=total growth inhibition (cytostatic effect), read-out: TGI PANC-1): 4.06 µM | GI50 (SK-BR-3; GI=growth inhibition, read-out: GI50 SK-BR-3): 2 µM | CC50 (SK-BR-3; LC=cell killing (cytotoxic effect), read-out: LC50 SK-BR-3): 8.04 µM | IC (TGI) (SK-BR-3; TGI=total growth inhibition (cytostatic effect), read-out: TGI SK-BR-3): 4.01 µM | GI50 (K-562; GI=growth inhibition, read-out: GI50 K-562): 0.313 µM | CC50 (K-562; LC=cell killing (cytotoxic effect), read-out: LC50 K-562): 5.42 µM | IC (TGI) (K-562; TGI=total growth inhibition (cytostatic effect), read-out: TGI K-562): 1.79 µM | GI50 (SK-MEL-28; Homo sapiens, SK-MEL-28, MEL-28; GI=growth inhibition; read-out: GI50 MEL-28): 1.23 µM | CC50 (SK-MEL-28; Homo sapiens, SK-MEL-28, MEL-28; LC=cell killing (cytotoxic effect); read-out: LC50 MEL-28): 8.94 µM | IC (TGI) (SK-MEL-28; [1]): 3.32 µM | GI50 (LNCaP; GI=growth inhibition, read-out: GI50 LN-caP): 0.377 µM | CC50 (LNCaP; LC=cell killing (cytotoxic effect), read-out: LC50 LN-caP): 4.91 µM | IC (TGI) (LNCaP; TGI=total growth inhibition (cytostatic effect), read-out: TGI LN-caP): 1.41 µM | GI50 (SKOV-3; SK-OV-3, SKOV-3, GI=growth inhibition, read-out: GI50 SKOV-3): 1.24 µM | CC50 (SKOV-3; SK-OV-3, SKOV-3, LC=cell killing (cytotoxic effect), read-out: LC50 SKOV-3): 9.46 µM | IC (TGI) (SKOV-3; SK-OV-3, SKOV-3, TGI=total growth inhibition (cytostatic effect), read-out: TGI SKOV-3): 4.44 µM | GI50 (DU-145; GI=growth inhibition, read-out: GI50 DU-145): 0.365 µM | CC50 (DU-145; LC=cell killing (cytotoxic effect), read-out: LC50 DU-145): 9.46 µM | IC (TGI) (DU-145; TGI=total growth inhibition (cytostatic effect), read-out: TGI DU-145): 2.28 µM | GI50 (LoVo; LoVo, GI=growth inhibition, read-out: GI50 LOVO): 0.463 µM | CC50 (LoVo; LoVo, read-out: LC50 LOVO): 9.46 µM | IC (TGI) (LoVo; LoVo): 3.63 µM | GI50 (LoVo-Dox; Homo sapiens, LOVO-DOX; GI=growth inhibition; read-out: GI50 LOVO-DOX): 0.395 µM | CC50 (LoVo-Dox; Homo sapiens, LOVO-DOX; LC=cell killing (cytotoxic effect); read-out: LC50 LOVO-DOX): 9.46 µM | IC (TGI) (LoVo-Dox; [2]): 2.32 µM | GI50 (IGROV-ET; IGROV-ET, GI=growth inhibition, read-out: GI50 IGROV-ET): 0.238 µM | CC50 (IGROV-ET; IGROV-ET, read-out: LC50 IGROV-ET): 6.62 µM | IC (TGI) (IGROV-ET; IGROV-ET, TGI=total growth inhibition (cytostatic effect), read-out: TGI IGROV-ET): 0.678 µM | GI50 (HT-29; HT-29, HT-29, GI=growth inhibition, read-out: GI50 HT-29): 3.91 µM | CC50 (HT-29; HT-29, HT-29, read-out: LC50 HT-29): 9.46 µM | IC (TGI) (HT-29; HT-29, HT-29): 9.46 µM | GI50 (A-549; Homo sapiens, A549, A-549): 0.735 µM | CC50 (A-549; Homo sapiens, A549, A-549, read-out: LC50 A-549): 9.46 µM | IC (TGI) (A-549; Homo sapiens, A549, A-549): 2.99 µM | GI50 (IGROV; GI=growth inhibition, read-out: GI50 IGROV): 0.185 µM | CC50 (IGROV; LC=cell killing (cytotoxic effect), read-out: LC50 IGROV): 2.83 µM | IC (TGI) (IGROV; TGI=total growth inhibition (cytostatic effect), read-out: TGI IGROV): 0.56 µM

COc1cc(-c2c3n(c4c(=O)oc5cc(OC(=O)[C@H](C)NC(=O)OC(C)(C)C)c(OC)cc5c24)CCc2c-3cc(OC)c(OC)c2OC(=O)[C@H](C)NC(=O)OC(C)(C)C)ccc1OC(=O)[C@H](C)NC(=O)OC(C)(C)C [Compound 46]
CC50 (PANC-1; PANC-1, read-out: LC50 PANC-1, PANC-1): 9.57 µM | IC (TGI) (H-MEC-1; HMEC-1, read-out: TGI H-MEC-1, H-MEC-1): 9.57 µM | IC (TGI) (H-MEC-1; HMEC-1, H-MEC-1, read-out: TGI H-MEC-1): 0.000847 µM | IC (TGI) (SK-MEL-28; [1]): 0.00417 µM | IC (TGI) (SK-MEL-28; Homo sapiens, SK-MEL-28; MEL-28; TGI=total growth inhibition (cytostatic effect); read-out: TGI MEL-28): 9.57 µM | CC50 (SKOV-3; SK-OV-3, read-out: LC50 SKOV-3): 9.57 µM | CC50 (LoVo; LoVo, read-out: LC50 LOVO, LOVO): 9.57 µM | IC (TGI) (LoVo; LoVo): 0.00932 µM | IC (TGI) (LoVo; LOVO): 9.57 µM | IC (TGI) (LoVo-Dox; [2]): 0.0957 µM | CC50 (LoVo-Dox; Homo sapiens, read-out: LC50 LOVO-DOX, LOVO-DOX; LC=cell killing (cytotoxic effect)): 9.57 µM | IC (TGI) (LoVo-Dox; Homo sapiens; LOVO-DOX; TGI=total growth inhibition (cytostatic effect); read-out: TGI LOVO-DOX): 9.57 µM | CC50 (IGROV-ET; read-out: LC50 IGROV-ET, IGROV-ET): 9.57 µM | CC50 (HT-29; HT-29, read-out: LC50 HT-29, HT-29): 9.57 µM | IC (TGI) (HT-29; HT-29): 9.57 µM | GI50 (A-549; A-549): 2.33 µM | GI50 (A-549; Homo sapiens, A549, A-549): 1.31 µM | IC (TGI) (A-549; Homo sapiens, A549, A-549): 9.57 µM | CC50 (A-549; Homo sapiens, A549, read-out: LC50 A-549, A-549): 9.57 µM
